{
  "source": "patent US20120128788A1",
  "about": "“COLLAGEN PRODUCTION ENHANCER” (SOFSERA CORPORATION, priority 2009, published 2012)",
  "test_system": "Fibroblasts of a normal human",
  "assay": "Test for determining activity of fibroblast to enhance type I collagen production (ELISA of culture medium)",
  "type": "cell-based",
  "details": "positive control, 25 μM, 24 h, n=6",
  "protocol": "Fibroblasts of a normal human were cultured for 24 hours in 0.5% FBS-DMEM culture medium containing the test sample, and the amount of collagen in the culture medium was quantified by ELISA. The test was carried out by repeating six times for each condition (n=6). As a positive control (P.C.), magnesium ascorbyl phosphate (VCPMg) was used. The test samples employed were the calcined hydroxyapatite that is produced in the Production Example 1 and the non-calcined hydroxyapatite that is used in the Production Example 2.",
  "note": "Several values for one entry are separate records, joined by “and”; a condition that tells them apart may be missing. Identical values can stand only once.",
  "data": [
    {"compound": "O=C1O[C@H]([C@@H](O)CO)C([O-])=C1OP(=O)([O-])[O-].O=C1O[C@H]([C@@H](O)CO)C([O-])=C1OP(=O)([O-])[O-].[Mg+2].[Mg+2].[Mg+2]", "note": "[VC-PMg, magnesium ascorbyl phosphate]", "values": [
      {"measurement": "Collagen Mean ± SD", "result": "24.28 ± 1.06 μg/mg protein and 19.75 ± 1.11 μg/mg protein"}
    ]}
  ]
}
